Source: US12195745B2, “Compositions and methods for modulating transduction efficiency of adeno-associated viruses” (Massachusetts Eye and Ear Infirmary, priority 2018, dated 2025)

Experiments:
[1] = system: Huh7 cells; test: Neuraminidase inhibitor pre-treatment of Huh7 cells followed by AAV transduction (luciferase); type: cell-based, human; conditions: for effect on transduction, short pre-treatment: 1 hour pre-treatment; for effect on AAV4 entry / effect on AAV5 transduction / effect on Anc80 transduction / decrease of rh32.33 transduction: 24 hours pre-treatment, 10,000 VG/cell; for decrease of rh32.33 transduction: CMV.Luciferase.SVPA
Procedure: All luciferase transduction assays were done by seeding 10,000 cells per well in black-bottom 96 well plates overnight. When indicated, cells were pre-incubated with 200 pfu/cell of WT hAd5 (University of Pennsylvania Vector core) in D10 for two hours, then hAd5-containing medium was removed prior to transduction. Cells were transduced with either AAV at 1×10^4 VG/cell in 50 μL serum-free DMEM (AAVR rescue experiments) for 1 h at 37° C., then D10 was added to a total volume of 200 μL, or 100 μl per well of crude virus prep (chimeric, and point mutant capsid experiments) was added for 1 h at 37° C., removed, then D10 was added. Transduction levels were analyzed by luciferase assay 48 hours post-transduction.
Two days post-transduction, cell culture medium was removed and cells were lysed in 20 μL per well of 1× Reporter Lysis Buffer (Promega, Cat#), then frozen at −80° C. After thaw, ffLuc expression was measured in Relative Light Units/s on a Synergy H1 Hybrid Multi-Mode Microplate reader using 100 μL luciferin buffer [200 mM Tris pH 8, 10 mM MgCl2, 300 μM ATP, 1× Firefly Luciferase signal enhancer (Thermo Cat#16180), and 150 μg/mL D-Luciferin].
Because NEU1 is an enzyme and CTSA, also identified in the entry screen (FIG. 5C), is required for maintaining the catalytically active conformation of NEU1 (D'Azzo et al., 1982, PNAS USA, 79:4535-9; and Vinogradova et al., 1998, Biochem. J. 330(Pt 2):641-50), whether enzymatic activity of NEU1 is required for its function was tested in rh32.33 and AAV4 entry. Two different sialic acid analog neuraminidase inhibitor compounds were used, Zanamivir (von Itzstein et al., 1993, Nature, 363:418-23) and DANA (Meindl et al., 1974, Virology, 58:457-63), to do a dose response on Huh7 cells and assess the effect on entry of different AAVR dependent and AAVR independent serotypes. Two different AAVR-dependent serotypes, AAV5 and Anc80, and two AAVR-independent serotypes, rh32.33 and AAV4, were tested. Importantly, AAV4 and AAV5 were examined because both AAVs use sialic acid as an attachment factor (Kaludov et al., 2001, J. Virol., 75:6884-93; and Walters et at, 2001, J. Biol. Chem., 276:20610-6) yet differ in their AAVR dependence.
Briefly, 10,000 cells per well were plated in 96-well plates 1 day prior to inhibitor treatment. […] When indicated, control or inhibitor treated cells were treated with 50 mU/mL Neuraminidase from Vibrio cholera Type III (Sigma Aldrich, Cat#N7885) in serum-free DMEM, followed by AAV transduction as described.

[2] = system: Huh7 cells; test: Inhibitor pre-treatment, then Neuraminidase from Vibrio cholera, then AAV transduction; type: cell-based, human; conditions: 2 mM inhibitor 24 h, then 2 h Neuraminidase from Vibrio cholera
Procedure: Briefly, 10,000 cells per well were plated in 96-well plates 1 day prior to inhibitor treatment. Cells were incubated with the indicated concentration of Zanamivir (Sigma SML0492) or DANA (EMD Millipore 252926) for 24 hours prior to transduction in a total volume of 100 μL D10. When indicated, control or inhibitor treated cells were treated with 50 mU/mL Neuraminidase from Vibrio cholera Type III (Sigma Aldrich, Cat#N7885) in serum-free DMEM, followed by AAV transduction as described.
Because NEU1 and CTSA play a role in cellular glycosylation states, confirmation was desired that the entry defect was not due to an overall alteration in glycosylation at the cell surface, leading to an attachment, defect. To do this, cells were first pre-treated for 24 h with Zanamivir or DANA, followed by treatment with a neuraminidase from Vibrio cholera to remove any sialic acid that may have accumulated at the cell surface due to NEU1 inhibition.
The indicated pre-chilled vector was then added to cells on ice, incubated for 1 hour for the vectors to undergo attachment, unbound vector was washed away using ice-cold PBS, then transduction was allowed to proceed and vector transduction assessed in the different treatment conditions by fold-change relative to untreated control cells via luciferase assay. […]

SMILES: CC(=O)N[C@H]1[C@H]([C@H](O)[C@H](O)CO)OC(C(=O)O)=C[C@@H]1O [DANA]
- effect on transduction, short pre-treatment [1]: did not show any decrease in transduction
- effect on AAV4 entry [1]: slightly decreased AAV4 entry
- effect on AAV5 transduction [1]: Neither of the AAVR-dependent serotypes, AAV5 or Anc80, showed a decrease in transduction
- effect on Anc80 transduction [1]: Neither of the AAVR-dependent serotypes, AAV5 or Anc80, showed a decrease in transduction
- decrease of rh32.33 transduction [1]: roughly ten-fold
- reversal of rh32.33 entry inhibition after neuraminidase treatment [2]: a reversal of entry inhibition was not observed

SMILES: CC(=O)N[C@H]1[C@H]([C@H](O)[C@H](O)CO)OC(C(=O)O)=C[C@@H]1N=C(N)N [Zanamivir]
- effect on transduction, short pre-treatment [1]: did not show any decrease in transduction
- effect on AAV4 entry [1]: slightly decreased AAV4 entry
- effect on AAV5 transduction [1]: Neither of the AAVR-dependent serotypes, AAV5 or Anc80, showed a decrease in transduction
- effect on Anc80 transduction [1]: Neither of the AAVR-dependent serotypes, AAV5 or Anc80, showed a decrease in transduction
- decrease of rh32.33 transduction [1]: roughly ten-fold
- reversal of rh32.33 entry inhibition after neuraminidase treatment [2]: a reversal of entry inhibition was not observed
